Laboratory results as given in patent US12275729B2 (Merck Sharp & Dohme LLC, priority 2017, dated 2025).
pIC50: −log10 of the molar value.

What follows are compounds tested against IDO1 (Homo sapiens, UniProt P14902) (assay: IDO1 Cellular Assay in HeLa Cells Stimulated with IFNγ). Conditions: about 48 hours, read-out: Hela IC50.
Format: cell-based
Procedure: Biological Assays IDO1 Cellular Assay in HeLa Cells Stimulated with IFNγ
HeLa cells were cultured in complete HeLa culture medium (90% EMEM, 10% heat-inactivated fetal bovine serum) and expanded to about 1×10^9 cells. The cells were then collected and frozen down at 1×10^7 cells/vial in 1 mL frozen medium (90% complete HeLa culture medium, 10% DMSO).
Compounds to be tested were serially diluted in ten 3-fold steps in DMSO starting from 10 mM DMSO stocks in Echo low volume plate(s).
Frozen HeLa cells were thawed and transferred into HeLa assay medium (99% complete HeLa culture medium, 1% Pen/Strep) with 20 mL medium/vial of cells. The cells were spun down at 250 g in a table top centrifuge for 5 min and suspended in same volume of HeLa assay medium. The cells were then counted and adjusted to a density of 2×10^5 cells/mL in HeLa assay medium. Sterile L-tryptophan were added to the cells with final concentration of 300 uM L-tryptophan. A small aliquot (2 mL/plate) of HeLa cells were set aside and were not treated with IFNγ, to serve as the Max-E control.
HeLa cells with and without IFNγ were dispensed to the respective wells of 384-well assay plates containing the compounds. The plates were incubated for about 48 hours at a 37° C., 5% CO2 incubator. Afterwards, 12 μL of 0.5 M methyl isonipecotate in dimethyl sulfoxide were added into each well and the plates were sealed and incubated at 37° C. without CO2 overnight. The plates were centrifuged for 1 min at 200×g. The resulting fluorescence was measured in a Spectramax plate reader (Molecular Devices) with a 400 nm excitation filter and a 510 nm emission filter.
Potencies were calculated by […] least squares fit to the four parameter logistic IC50 equation.

Chain of IDO1 (P14902 whole entry): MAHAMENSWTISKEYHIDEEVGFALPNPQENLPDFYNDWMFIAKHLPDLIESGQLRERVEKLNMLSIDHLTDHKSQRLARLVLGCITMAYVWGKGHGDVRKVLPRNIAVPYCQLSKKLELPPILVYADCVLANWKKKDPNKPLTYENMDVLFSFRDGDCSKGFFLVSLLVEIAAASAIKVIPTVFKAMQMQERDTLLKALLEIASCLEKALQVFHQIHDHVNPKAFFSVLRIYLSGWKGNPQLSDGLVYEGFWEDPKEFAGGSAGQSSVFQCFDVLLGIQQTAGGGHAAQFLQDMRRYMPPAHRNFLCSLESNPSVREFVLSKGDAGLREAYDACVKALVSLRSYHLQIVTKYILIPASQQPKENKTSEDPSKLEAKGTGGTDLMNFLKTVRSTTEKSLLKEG

Row | SMILES | pIC50
1 | O=C(Nc1ccc(Cl)cc1)C1(c2ccc3c(n2)CCCN3c2cccc(C(F)(F)F)n2)CCC1 [Example 409, N-(4-chlorophenyl)-1-(5-(6-(trifluoromethyl)pyridin-2-yl)-5,6,7,8-tetrahydro-1,5-naphthyridin-2-yl)cyclobutane-1-carboxamide] | 8.76
2 | C[C@@H](NC(=O)c1ccc(F)cc1)c1ccc2c(n1)CCCN2C(=O)[C@H]1CC1(F)F (single isomer, unassigned) [Example 134] | 7.62
3 | CC(C(=O)Nc1ccc(F)cc1)c1ccc2c(n1)CCCN2C(=O)c1cccc(S(C)(=O)=O)c1 (stereo not drawn) [Example 285, N-(4-fluorophenyl)-2-(5-(3-(methylsulfonyl)benzoyl)-5,6,7,8-tetrahydro-1,5-naphthyridin-2-yl)propanamide] | 5.40
4 | CC(NC(=O)c1ccc(F)cc1)c1ccc2c(n1)CCCN2C(=O)C1COC1 (stereo not drawn) [Example 142, 4-fluoro-N-{1-[5-(oxetane-3-carbonyl)-5,6,7,8-tetrahydro-1,5-naphthyridin-2-yl]ethyl}benzamide] | 5.81
5 | CCN(C(=O)N1CCc2cc(C3(C(=O)Nc4ccc(Cl)cc4)CCC3)ccc21)C(C)C [Example 274, 5-{1-[(4-chlorophenyl)carbamoyl]cyclobutyl}-N-ethyl-N-(propan-2-yl)-2,3-dihydro-1H-indole-1-carboxamide] | 8.48
6 | CC(C(=O)Nc1ccc(F)cc1)c1ccc2c(n1)CCCN2C(=O)C1CCOCC1 (stereo not drawn) [Example 166, N-(4-fluorophenyl)-2-[5-(oxane-4-carbonyl)-5,6,7,8-tetrahydro-1,5-naphthyridin-2-yl]propanamide] | 7.78
7 | CC(NC(=O)c1ccc(Cl)cc1)c1ccc2c(n1)OCCN2C(=O)c1ccccc1 (racemic) [Example 253, N-(1-(1-benzoyl-2,3-dihydro-1H-pyrido[2,3-b][1,4]oxazin-6-yl)ethyl)-4-chlorobenzamide] | 8.46
8 | O=C(c1cc(C2CC2)n[nH]1)N1CCCc2cc(C3(C(=O)Nc4ccc(F)cc4)CCC3)ccc21 [Example 117, 1-[1-(3-cyclopropyl-1H-pyrazole-5-carbonyl)-1,2,3,4-tetrahydroquinolin-6-yl]-N-(4-fluorophenyl)cyclobutane-1-carboxamide] | 7.75
9 | Cc1c(C(=O)N2CCCc3cc(C4(C(=O)Nc5ccc(F)cc5)CCC4)ccc32)cnn1C [Example 111, 1-[1-(1,5-dimethyl-1H-pyrazole-4-carbonyl)-1,2,3,4-tetrahydroquinolin-6-yl]-N-(4-fluorophenyl)cyclobutane-1-carboxamide] | 7.18
10 | CC(C)(C(=O)Nc1ccc(F)cc1)c1ccc2c(n1)CCCN2C(=O)C1CCOCC1 [Example 186, N-(4-fluorophenyl)-2-methyl-2-[5-(oxane-4-carbonyl)-5,6,7,8-tetrahydro-1,5-naphthyridin-2-yl]propanamide] | 8.23
11 | CC(NC(=O)c1ccc(F)cc1)c1ccc2c(n1)CCCN2C(=O)c1ccn(C2CC2)n1 (stereo in doubt) [Example 144, N-{(1R)-1-[5-(1-cyclopropyl-1H-pyrazole-3-carbonyl)-5,6,7,8-tetrahydro-1,5-naphthyridin-2-yl]ethyl}-4-fluorobenzamide] | 7.74
12 | C[C@H](C(=O)Nc1ccc(F)cc1)c1ccc2c(c1)CCCN2C(=O)C1CCC1 [Example 80, (2S)-2-[1-(cyclobutanecarbonyl)-1,2,3,4-tetrahydroquinolin-6-yl]-N-(4-fluorophenyl)propanamide] | 8.35
13 | C[C@H](NC(=O)c1ccc(F)cn1)c1ccc2c(c1)CCCN2C(=O)C1(F)CC1 (single isomer, unassigned) [Example 34] | 6.10
14 | C[C@H](C(=O)Nc1ccc(F)cc1)c1ccc2c(c1)CCCN2C(=O)[C@@H]1CCOC1 [Example 78, (2S)-N-(4-fluorophenyl)-2-{1-[(3R)-oxolane-3-carbonyl]-1,2,3,4-tetrahydroquinolin-6-yl}propanamide] | 7.29
15 | CC(NC(=O)c1ccc(F)cc1)c1ccc2c(n1)C(F)CCN2C(=O)C1CC1 (single isomer, unassigned) [Example 204, N-(1-(5-(cyclopropanecarbonyl)-8-fluoro-5,6,7,8-tetrahydro-1,5-naphthyridin-2-yl)ethyl)-4-fluorobenzamide] | 6.64
16 | CC(NC(=O)c1ccc(F)cc1)c1ccc2c(n1)C(F)(F)CCN2C(=O)C1CC1 (single isomer, unassigned) [Example 194, N-(1-(5-(cyclopropanecarbonyl)-8,8-difluoro-5,6,7,8-tetrahydro-1,5-naphthyridin-2-yl)ethyl)-4-fluorobenzamide] | 5.58
17 | CS(=O)(=O)N1CCCc2cc(C3(C(=O)Nc4ccc(F)cn4)CCC3)ccc21 [Example 123, N-(5-fluoropyridin-2-yl)-1-[1-(methylsulfonyl)-1,2,3,4-tetrahydroquinolin-6-yl]cyclobutane-1-carboxamide] | 7.47
18 | C[C@H](NC(=O)c1ccc(F)cc1)c1ccc2c(c1)CCCN2C(=O)C1(F)CC1 (single isomer, unassigned) [Example 32] | 7.56
19 | O=C(Nc1ccc(F)cc1)C1(c2ccc3c(n2)CCCN3c2ccnc(C(F)(F)F)n2)CCC1 [Example 407, N-(4-fluorophenyl)-1-(5-(2-(trifluoromethyl)pyrimidin-4-yl)-5,6,7,8-tetrahydro-1,5-naphthyridin-2-yl)cyclobutane-1-carboxamide] | 8.83
20 | CC(C)CC(=O)N1CCCc2cc(CNC(=O)c3ccc(I)cc3)ccc21 [Example 12, 4-iodo-N-{[1-(3-methylbutanoyl)-1,2,3,4-tetrahydroquinolin-6-yl]methyl}benzamide] | 7.68
21 | CC(NC(=O)c1ccc(F)cc1)c1ccc2c(n1)CCCN2C(=O)c1cccc(Cl)c1Cl (stereo not drawn) [Example 148, N-{1-[5-(2,3-dichlorobenzene-1-carbonyl)-5,6,7,8-tetrahydro-1,5-naphthyridin-2-yl]ethyl}-4-fluorobenzamide] | 8.60
22 | CC(NC(=O)c1ccc(F)cc1)c1ccc2c(n1)CCCN2CC1CC1 (stereo not drawn) [Example 227, N-{1-[5-(cyclopropylmethyl)-5,6,7,8-tetrahydro-1,5-naphthyridin-2-yl]ethyl}-4-fluorobenzamide] | 7.15
23 | C[C@H](C(=O)Nc1ccc(F)cc1)c1ccc2c(c1)CCCN2C(=O)C[C@@H](C)O [Example 68, (2S)-N-(4-fluorophenyl)-2-{1-[(3R)-3-hydroxybulanoyl]-1,2,3,4-tetrahydroquinolin-6-yl}propanamide] | 6.53
24 | Cc1cc(C(=O)NCc2ccc3c(c2)CCCN3C(=O)CC(C)C)ccc1Cl [Example 4, 4-chloro-3-methyl-N-{[1-(3-methylbutanoyl)-1,2,3,4-tetrahydroquinolin-6-yl]methyl}benzamide] | 6.53
25 | C[C@@H](NC(=O)c1ccc(F)cn1)c1ccc2c(c1)CCCN2C(=O)C1(F)CC1 (single isomer, unassigned) [Example 33] | 6.14
26 | CC(C(=O)Nc1ccc(F)cc1)c1ccc2c(c1)CCCN2C(=O)C1(C(F)(F)F)CC1 (stereo not drawn) [Example 66, N-(4-fluorophenyl)-2-{1-[1-(trifluoromethyl)cyclopropane-1-carbonyl]-1,2,3,4-tetrahydroquinolin-6-yl}propanamide] | 8.14
27 | CC(C(=O)Nc1ccc(F)cc1)c1ccc2c(c1)CCCN2C1CCOCC1 (stereo not drawn) [Example 230, N-(4-fluorophenyl)-2-[1-(oxan-4-yl)-1,2,3,4-tetrahydroquinolin-6-yl]propanamide] | 5.24
28 | CC(C(=O)Nc1ccc(F)cc1)c1ccc2c(n1)CCCN2C(=O)C1CCCCO1 (single isomer, unassigned) [Example 159, N-(4-fluorophenyl)-2-[5-(oxane-2-carbonyl)-5,6,7,8-tetrahydro-1,5-naphthyridin-2-yl]propanamide] | 8.82

Same assay, conditions: read-out: Hela IC50

Row | SMILES | pIC50
29 | Cc1nccc(N2CCCc3nc(C(C)C(=O)Nc4ccc(F)cc4)ccc32)n1 (stereo not drawn) [Example 372, N-(4-fluorophenyl)-2-(5-(2-methylpyrimidin-4-yl)-5,6,7,8-tetrahydro-1,5-naphthyridin-2-yl)propanamide] | 8.27
30 | CC(NC(=O)c1ccc(F)cc1)c1ccc2c(n1)CCCN2c1cc(F)ccn1 (stereo not drawn) [Example 380, 4-fluoro-N-(1-(5-(4-fluoropyridin-2-yl)-5,6,7,8-tetrahydro-1,5-naphthyridin-2-yl)ethyl)benzamide] | 7.13
31 | Cc1cc(N2CCCc3nc(C(C)NC(=O)c4ccc(Cl)cc4)ccc32)nc(C(F)(F)F)n1 (stereo not drawn) [Example 349, 4-chloro-N-(1-(5-(6-methyl-2-(trifluoromethyl)pyrimidin-4-yl)-5,6,7,8-tetrahydro-1,5-naphthyridin-2-yl)ethyl)benzamide] | 8.01
32 | O=C(OC1CC1)N1CCCc2nc(C3(C(=O)Nc4ccc(Cl)cc4)CCC3)ccc21 [Example 411, cyclopropyl 6-(1-((4-chlorophenyl)carbamoyl)cyclobutyl)-3,4-dihydro-1,5-naphthyridine-1(2H)-carboxylate] | 9.14
33 | CC(COC(=O)N1CCCc2nc(C(C)NC(=O)c3ccc(F)cc3)ccc21)Oc1ccccc1 (stereo not drawn) [Example 327, 2-phenoxypropyl 6-(1-(4-fluorobenzamido)ethyl)-3,4-dihydro-1,5-naphthyridine-1(2H)-carboxylate] | 7.84
